Where two headings read alike, the source gives them in different places.

We go through five compounds from patent publication US20010047099A1, “4-aminopicolinates and their use as herbicides” (priority 2000, published 2001).

Common to all, as to type: in vivo
Experiment [1] relates to barnyardgrass (Echinochloa crus-galli). Description: Preemergence herbicidal activity. The conditions noted are these: pre-emergence, 504 h. In short, it runs like this:
(§1)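 Seeds were sown in a 70:30 loam/sand mix (pH about 8.1, about 1.5 percent organic matter), and the soil surface was sprayed with compound in aqueous acetone/DMSO containing 0.1 percent Tween 155. Pots were kept in a greenhouse at 23-29° C day, 15 hr photoperiod, top-irrigated; injury was scored visually after 3 weeks.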

The test system of experiment [2] is cocklebur (Xanthium strumarium). The experiment can be described thus: Preemergence herbicidal activity. Conditions: pre-emergence, 504 h. In short, it runs like this: as §1
The subject of experiment [3] is giant foxtail (Setaria faberi). Description: Preemergence herbicidal activity. The conditions noted are these: pre-emergence, 504 h. In short, it runs like this:
as §1

The subject of experiment [4] is blackgrass (Alopecurus myosuroides). Description: Preemergence herbicidal activity. Conditions: pre-emergence, 504 h. The gist of the method:
as §1

The subject of experiment [5] is lambsquarters (Chenopodium album). Description: Preemergence herbicidal activity. Conditions: pre-emergence, 504 h. The gist of the method: as §1
In experiment [6] the test system is crabgrass (Digitaria sanguinalis). The experiment can be described thus: Preemergence herbicidal activity. The conditions noted are these: pre-emergence, 504 h. The gist of the method: as §1
Experiment [7] concerns Rox orange sorghum (sorghum bicolor). Description: Preemergence herbicidal activity. The conditions noted are these: pre-emergence, 504 h. In short, it runs like this: as §1
A further experiment deals with wild oats (Avena fatua). Description: Preemergence herbicidal activity. The conditions noted are these: pre-emergence, 504 h. In short, it runs like this:
as §1

Experiment [8] concerns wild poinsettia (Euphorbia heterophylla). Description: Preemergence herbicidal activity. The conditions noted are these: pre-emergence, 504 h. In short, it runs like this:
as §1

The subject of experiment [9] is White Clover (Trifolium repens). The experiment can be described thus: Range & Pasture Crop Testing (postemergence track sprayer). Conditions: Table 10. The gist of the method: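 Postemergence track-sprayer application at 187 L/ha, compounds formulated in 97:3 acetone:DMSO with 0.25% X-77, five rates (X serially diluted to 1/16×). Visual percent control (0–100 scale, burn down) rated 3 weeks after treatment; GR50/GR80 derived by probit analysis.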

The mark [10] stands for this setting: Table 7, rate 35 g/Ha, after 3 weeks, read-out: PREEMERGENCE HERBICIDAL ACTIVITY % CONTROL ECHCG.
[11] abbreviates: Table 7, rate 35 g/Ha, after 3 weeks, read-out: PREEMERGENCE HERBICIDAL ACTIVITY % CONTROL XANST.
The mark [12] stands for this setting: Table 7, rate 35 g/Ha, after 3 weeks, read-out: PREEMERGENCE HERBICIDAL ACTIVITY % CONTROL SETFA.
Where [13] appears, read: Table 7, rate 35 g/Ha, after 3 weeks, read-out: PREEMERGENCE HERBICIDAL ACTIVITY % CONTROL CHEAL.
Where [14] appears, read: Table 7, rate 35 g/Ha, after 3 weeks, read-out: PREEMERGENCE HERBICIDAL ACTIVITY % CONTROL DIGSA.
Where [15] appears, read: Table 7, rate 35 g/Ha, after 3 weeks, read-out: PREEMERGENCE HERBICIDAL ACTIVITY % CONTROL SORBI.
Setting [16] is: Table 7, rate 35 g/Ha, after 3 weeks, read-out: PREEMERGENCE HERBICIDAL ACTIVITY % CONTROL AVEFA.
The mark [17] stands for this setting: Table 7, rate 35 g/Ha, after 3 weeks, read-out: PREEMERGENCE HERBICIDAL ACTIVITY % CONTROL EPHHL.
Setting [18] is: Table 7, rate 35 g/Ha, after 3 weeks, read-out: PREEMERGENCE HERBICIDAL ACTIVITY % CONTROL ALOMY.

In the case of `Nc1cc(Cl)nc(C(=O)O)c1Cl` [Compound 1, 4-Amino-3,6-dichloropyridine-2-carboxylic acid], the inhibition at 35 g/ha in experiment [1] (read-out: PR[…] % CONTROL ECHCG, Table 7, rate 35 g/Ha, after 3 weeks) is 17%; in experiment [2] (read-out: PR[…] % CONTROL XANST, Table 7, rate 35 g/Ha, after 3 weeks), 99%; in experiment [3] (read-out: PR[…] % CONTROL SETFA, Table 7, rate 35 g/Ha, after 3 weeks), 40%; in experiment [4] (read-out: PR[…] % CONTROL ALOMY, Table 7, rate 35 g/Ha, after 3 weeks), 36%; in [5] (read-out: PR[…] % CONTROL CHEAL, Table 7, rate 35 g/Ha, after 3 weeks), 99%; in experiment [6] (read-out: PR[…] % CONTROL DIGSA, Table 7, rate 35 g/Ha, after 3 weeks), 20%. Also, the inhibition at 35 g/ha stood at 60% in [7] (read-out: PR[…] % CONTROL SORBI, Table 7, rate 35 g/Ha, after 3 weeks); 37% in the experiment on wild oats (Avena fatua) (read-out: PR[…] % CONTROL AVEFA, Table 7, rate 35 g/Ha, after 3 weeks); 62% in [8] (read-out: PR[…] % CONTROL EPHHL, Table 7, rate 35 g/Ha, after 3 weeks).
Take `COC(=O)c1nc(Cl)cc(N)c1Cl` [Compound 3, methyl 4-amino-3,6-dichloropyridine-2-carboxylate]: the inhibition at 35 g/ha turned out to be 20% in [1] (setting [10]); 90% in experiment [2] (setting [11]); 40% in experiment [3] (setting [12]); 100% in experiment [5] (setting [13]); 40% in experiment [6] (setting [14]); 30% in [7] (setting [15]). In addition, the results for the inhibition at 35 g/ha (in the experiment on wild oats (Avena fatua) (setting [16]); in experiment [8] (setting [17])) were 10% and 20%, respectively. Further, in experiment [9], the “GR20 TRFRE” value is given as under 17.5 g/ha.
In the case of `CCOC(=O)c1nc(Cl)cc(N)c1Cl` [Compound 4, ethyl 4-amino-3,6-dichloropyridine-2-carboxylate], the “GR20 TRFRE” value in experiment [9] was under 17.5 g/ha.
Turning to `Nc1cc(Br)nc(C(=O)O)c1Cl` [Compound 14, 4-Amino-6-bromo-3-chloropyridine-2-carboxylic acid], the inhibition at 35 g/ha in experiment [1] (setting [10]) is 40%; in [2] (setting [11]), 100%; in experiment [3] (setting [12]), 98%; in experiment [4] (setting [18]), 60%; in experiment [5] (setting [13]) it was 100%; in experiment [6] (setting [14]), 80%. Besides, the inhibition at 35 g/ha in experiment [7] (setting [15]) was 50%; in the experiment with wild oats (Avena fatua) (setting [16]), 40%; in experiment [8] (setting [17]), 70%.
As for `COc1c(C(=O)O)nc(Br)c(Cl)c1N` [Compound 42, 4-Amino-6-bromo-5-chloro-3-methoxypyridine-2-carboxylic acid], the inhibition at 35 g/ha in experiment [1] (setting [10]) worked out at 30%; in experiment [2] (setting [11]), 98%; in experiment [3] (setting [12]) it was 30%; in [4] (setting [18]) it was 30%; in [5] (setting [13]), 90%; in [6] (setting [14]), 30%. Moreover, the inhibition at 35 g/ha came out at 20% in experiment [7] (setting [15]), 30% in the experiment on wild oats (Avena fatua) (setting [16]) and 40% in experiment [8] (setting [17]).
